From patent US12077503B2, “Substituted cyclic amides and their use as herbicides” (FMC CORPORATION, priority 2015, dated 2024)

What was measured:
Assay type in all cases: in vivo
[1] = test system: giant foxtail (Setaria faberi); test: Test G Pre-Emergence Protocol; settings: Setaria faberi, pre-emergence, 312 h, evaluated after 13 days; for pest or weed control at 15.625 g/ha: 15.625 g ai/ha; for pest or weed control at 15.625 g/ha / pest or weed control at 250 g/ha: read-out: Foxtail, Giant damage rating (100=total damage to plant; 0=no damage to plant); for pest or weed control at 62.5 g/ha: 62.5 g ai/ha, 100=total damage to plant, 0=no damage to plant, read-out: plant damage rating, Foxtail, Giant; for pest or weed control at 250 g/ha: 250 g ai/ha
Summary of the method: (§1)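 Pots of seeds in standard soil were grown for one day in a glasshouse (24/16 °C day/night, 14 h light, 65% humidity), then sprayed with compound in acetone/water 50:50 with 0.5% Tween 20 at 15.625, 62.5 or 250 g/ha. Damage was scored after 13 days on a 0 (none) to 100 (total) scale.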

[2] = test system: ivy-leaved morning glory (Ipomoea hederacea); test: Test G Pre-Emergence Protocol; settings: Ipomoea, pre-emergence, 312 h, evaluated after 13 days; for pest or weed control at 15.625 g/ha: 15.625 g ai/ha, read-out: Morning-glory, Ivy-leaved damage rating (100=total damage to plant; 0=no damage to plant); for pest or weed control at 62.5 g/ha: 62.5 g ai/ha, 100=total damage to plant, 0=no damage to plant, read-out: plant damage rating, Morningglory, Ivy-leaved; for pest or weed control at 250 g/ha: 250 g ai/ha, read-out: Morningglory, Ivy-leaved damage rating (100=total damage to plant; 0=no damage to plant)
Summary of the method: as §1

[3] = test system: redroot pigweed (Amaranthus retroflexus); test: Test G Pre-Emergence Protocol; settings: Amaranthus retroflexus, pre-emergence, 312 h, evaluated after 13 days; for pest or weed control at 15.625 g/ha: 15.625 g ai/ha; for pest or weed control at 15.625 g/ha / pest or weed control at 250 g/ha: read-out: Pigweed, Redroot damage rating (100=total damage to plant; 0=no damage to plant); for pest or weed control at 62.5 g/ha: 62.5 g ai/ha, 100=total damage to plant, 0=no damage to plant, read-out: plant damage rating, Pigweed, Redroot; for pest or weed control at 250 g/ha: 250 g ai/ha
Summary of the method: as §1

[4] = test system: barnyardgrass (Echinochloa crus-galli); test: Test G Pre-Emergence Protocol; settings: Echinochloa crus-galli, pre-emergence, 312 h, evaluated after 13 days; for pest or weed control at 15.625 g/ha: 15.625 g ai/ha, read-out: Barnyard grass damage rating (100=total damage to plant; 0=no damage to plant); for pest or weed control at 62.5 g/ha: 62.5 g ai/ha, 100=total damage to plant, 0=no damage to plant, read-out: plant damage rating, Barnyardgrass; for pest or weed control at 250 g/ha: 250 g ai/ha, read-out: Barnyardgrass damage rating (100=total damage to plant; 0=no damage to plant)
Summary of the method: as §1

[5] = test system: velvetleaf (Abutilon theophrasti); test: Test G Pre-Emergence Protocol; settings: Abutilon theophrasti, pre-emergence, 312 h, evaluated after 13 days; for pest or weed control at 15.625 g/ha: 15.625 g ai/ha; for pest or weed control at 15.625 g/ha / pest or weed control at 250 g/ha: read-out: Velvetleaf damage rating (100=total damage to plant; 0=no damage to plant); for pest or weed control at 62.5 g/ha: 62.5 g ai/ha, 100=total damage to plant, 0=no damage to plant, read-out: plant damage rating, Velvetleaf; for pest or weed control at 250 g/ha: 250 g ai/ha
Summary of the method: as §1

corn (Zea mays) [6] = test: Test G Pre-Emergence Protocol; settings: Zea mays, pre-emergence, 312 h, evaluated after 13 days; for plant injury at 15.625 g/ha: 15.625 g ai/ha; for plant injury at 15.625 g/ha / plant injury at 250 g/ha: read-out: Corn damage rating (100=total damage to plant; 0=no damage to plant); for plant injury at 62.5 g/ha: 62.5 g ai/ha, 100=total damage to plant, 0=no damage to plant, read-out: plant damage rating, Corn; for plant injury at 250 g/ha: 250 g ai/ha
Summary of the method: as §1

[7] = test system: giant foxtail (Setaria faberi); test: Test G Post-Emergence Protocol; settings: Setaria faberi, post-emergence, 312 h; for pest or weed control at 15.625 g/ha: 15.625 g ai/ha, evaluated after 13 days (100=total damage to plant; 0=no damage to plant), read-out: Foxtail, Giant damage rating; for pest or weed control at 62.5 g/ha: 62.5 g ai/ha, read-out: Foxtail, Giant damage rating (100=total damage to plant; 0=no damage to plant); for pest or weed control at 62.5 g/ha / pest or weed control at 250 g/ha: evaluated after 13 days; for pest or weed control at 250 g/ha: 250 g ai/ha, read-out: damage to plant, Foxtail, Giant (100=total damage to plant; 0=no damage to plant)
Summary of the method: (§2)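 Sow in soil; grow 8 d (24/16 °C, 14 h light, 65% humidity); spray 15.625/62.5/250 g/ha in acetone:water 50:50 + 0.5% Tween 20; grow on, water twice daily; score damage 0–100 at 13 d.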

[8] = test system: ivy-leaved morning glory (Ipomoea hederacea); test: Test G Post-Emergence Protocol; settings: Ipomoea, post-emergence, 312 h; for pest or weed control at 15.625 g/ha: 15.625 g ai/ha, evaluated after 13 days (100=total damage to plant; 0=no damage to plant), read-out: Morningglory, Ivy-leaved damage rating; for pest or weed control at 62.5 g/ha: 62.5 g ai/ha, read-out: Morningglory, Ivy-leaved damage rating (100=total damage to plant; 0=no damage to plant); for pest or weed control at 62.5 g/ha / pest or weed control at 250 g/ha: evaluated after 13 days; for pest or weed control at 250 g/ha: 250 g ai/ha, read-out: damage to plant, Morningglory, Ivy-leaved (100=total damage to plant; 0=no damage to plant)
Summary of the method: as §2

[9] = test system: redroot pigweed (Amaranthus retroflexus); test: Test G Post-Emergence Protocol; settings: Amaranthus retroflexus, post-emergence, 312 h; for pest or weed control at 15.625 g/ha: 15.625 g ai/ha, evaluated after 13 days (100=total damage to plant; 0=no damage to plant), read-out: Pigweed, Redroot damage rating; for pest or weed control at 62.5 g/ha: 62.5 g ai/ha, read-out: Pigweed, Redroot damage rating (100=total damage to plant; 0=no damage to plant); for pest or weed control at 62.5 g/ha / pest or weed control at 250 g/ha: evaluated after 13 days; for pest or weed control at 250 g/ha: 250 g ai/ha, read-out: damage to plant, Pigweed, Redroot (100=total damage to plant; 0=no damage to plant)
Summary of the method: as §2

[10] = test system: barnyardgrass (Echinochloa crus-galli); test: Test G Post-Emergence Protocol; settings: Echinochloa crus-galli, post-emergence, 312 h; for pest or weed control at 15.625 g/ha: 15.625 g ai/ha, evaluated after 13 days (100=total damage to plant; 0=no damage to plant), read-out: Barnyardgrass damage rating; for pest or weed control at 62.5 g/ha: 62.5 g ai/ha, read-out: Barnyardgrass damage rating (100=total damage to plant; 0=no damage to plant); for pest or weed control at 62.5 g/ha / pest or weed control at 250 g/ha: evaluated after 13 days; for pest or weed control at 250 g/ha: 250 g ai/ha, read-out: damage to plant, Barnyardgrass (100=total damage to plant; 0=no damage to plant)
Summary of the method: as §2

[11] = test system: velvetleaf (Abutilon theophrasti); test: Test G Post-Emergence Protocol; settings: Abutilon theophrasti, post-emergence, 312 h; for pest or weed control at 15.625 g/ha: 15.625 g ai/ha, evaluated after 13 days (100=total damage to plant; 0=no damage to plant), read-out: Velvetleaf damage rating; for pest or weed control at 62.5 g/ha: 62.5 g ai/ha, read-out: Velvetleaf damage rating (100=total damage to plant; 0=no damage to plant); for pest or weed control at 62.5 g/ha / pest or weed control at 250 g/ha: evaluated after 13 days; for pest or weed control at 250 g/ha: 250 g ai/ha, read-out: damage to plant, Velvetleaf (100=total damage to plant; 0=no damage to plant)
Summary of the method: as §2

corn (Zea mays) [12] = test: Test G Post-Emergence Protocol; settings: Zea mays, post-emergence, 312 h; for plant injury at 15.625 g/ha: 15.625 g ai/ha, evaluated after 13 days (100=total damage to plant; 0=no damage to plant), read-out: Corn damage rating; for plant injury at 62.5 g/ha: 62.5 g ai/ha, read-out: Corn damage rating (100=total damage to plant; 0=no damage to plant); for plant injury at 62.5 g/ha / plant injury at 250 g/ha: evaluated after 13 days; for plant injury at 250 g/ha: 250 g ai/ha, read-out: damage to plant, Corn (100=total damage to plant; 0=no damage to plant)
Summary of the method: as §2

CN1C[C@@H](c2ccc(C(F)(F)F)cc2)[C@H](C(=O)Nc2ncnn2C)C1=O (racemic) [Compound 1643]
0%: pest or weed control at 15.625 g/ha [1] | pest or weed control at 62.5 g/ha [1] | pest or weed control at 250 g/ha [1] | pest or weed control at 15.625 g/ha [2] | pest or weed control at 62.5 g/ha [2] | pest or weed control at 250 g/ha [2] | pest or weed control at 15.625 g/ha [3] | pest or weed control at 62.5 g/ha [3] | pest or weed control at 250 g/ha [3] | pest or weed control at 15.625 g/ha [4] | pest or weed control at 62.5 g/ha [4] | pest or weed control at 250 g/ha [4] | pest or weed control at 15.625 g/ha [5] | pest or weed control at 62.5 g/ha [5] | pest or weed control at 250 g/ha [5] | plant injury at 15.625 g/ha (corn (Zea mays) [6]) | plant injury at 62.5 g/ha (corn (Zea mays) [6]) | plant injury at 250 g/ha (corn (Zea mays) [6]) | pest or weed control at 15.625 g/ha [7] | pest or weed control at 62.5 g/ha [7] | pest or weed control at 250 g/ha [7] | pest or weed control at 15.625 g/ha [8] | pest or weed control at 62.5 g/ha [8] | pest or weed control at 250 g/ha [8] | pest or weed control at 15.625 g/ha [9] | pest or weed control at 62.5 g/ha [9] | pest or weed control at 250 g/ha [9] | pest or weed control at 15.625 g/ha [10] | pest or weed control at 62.5 g/ha [10] | pest or weed control at 250 g/ha [10] | pest or weed control at 15.625 g/ha [11] | pest or weed control at 62.5 g/ha [11] | pest or weed control at 250 g/ha [11] | plant injury at 15.625 g/ha (corn (Zea mays) [12]) | plant injury at 62.5 g/ha (corn (Zea mays) [12]) | plant injury at 250 g/ha (corn (Zea mays) [12])

CN1C[C@@H](c2ccc(C(F)(F)F)cc2)[C@H](C(=O)Nc2ncc[nH]2)C1=O (racemic) [Compound 1536]
0%: pest or weed control at 15.625 g/ha [1] | pest or weed control at 62.5 g/ha [1] | pest or weed control at 250 g/ha [1] | pest or weed control at 15.625 g/ha [2] | pest or weed control at 62.5 g/ha [2] | pest or weed control at 250 g/ha [2] | pest or weed control at 15.625 g/ha [3] | pest or weed control at 62.5 g/ha [3] | pest or weed control at 250 g/ha [3] | pest or weed control at 15.625 g/ha [4] | pest or weed control at 62.5 g/ha [4] | pest or weed control at 250 g/ha [4] | pest or weed control at 15.625 g/ha [5] | pest or weed control at 62.5 g/ha [5] | pest or weed control at 250 g/ha [5] | plant injury at 15.625 g/ha (corn (Zea mays) [6]) | plant injury at 62.5 g/ha (corn (Zea mays) [6]) | plant injury at 250 g/ha (corn (Zea mays) [6]) | pest or weed control at 15.625 g/ha [7] | pest or weed control at 62.5 g/ha [7] | pest or weed control at 250 g/ha [7] | pest or weed control at 15.625 g/ha [8] | pest or weed control at 62.5 g/ha [8] | pest or weed control at 250 g/ha [8] | pest or weed control at 15.625 g/ha [9] | pest or weed control at 62.5 g/ha [9] | pest or weed control at 250 g/ha [9] | pest or weed control at 15.625 g/ha [10] | pest or weed control at 62.5 g/ha [10] | pest or weed control at 250 g/ha [10] | pest or weed control at 15.625 g/ha [11] | pest or weed control at 62.5 g/ha [11] | pest or weed control at 250 g/ha [11] | plant injury at 15.625 g/ha (corn (Zea mays) [12]) | plant injury at 62.5 g/ha (corn (Zea mays) [12]) | plant injury at 250 g/ha (corn (Zea mays) [12])
